*1 amine or outer side, *2 acyl side, *3 side chain or, on linkers, in order; H or OH if unused. Where a SMILES comes first, the peptide text is derived from it. Side-chain parts run from the residue outwards. [ ]: non-standard residue; d: D form. The star is where a group is joined. γGlu = O=C(O)[C@H](CCC(=O)[*:2])N[*:1]; Palmitoyl = CCCCCCCCCCCCCCCC(=O)*; Aib = CC(C)(N)C(=O)O
Columns and labels:
human GCGR = biological target: T1, human GCGR (Homo sapiens, UniProt P47871); experiment: cAMP production in CHO-K1 cells stably expressing human GCGR, DiscoveRx Hithunter cAMP XS+ (Example 4); format: cell-based; settings: procedure of Example 4
T1 construct: host or cells: CHO-K1
Protocol: (§1) The in vitro agonist potencies of the peptide of SEQ ID NO. 17 were determined using Chinese Hamster Ovary cells (CHO-K1) stably expressing human GLP-1R, GCGR or GIPR. The GLP-1R and GCGR stable cell line isogenic pools were generated by Invitrogen using their Jump-In™ targeted integration technology, whereas the stable CHO/GIPR lines were generated through classic cloning and transfection techniques (random integration) with limited dilution for selection of clones. The peptides were tested in vitro for their relative abilities to stimulate cAMP production in the various cell lines using the DiscoveRx Hithunter™ cAMP XS+ assay kit (cat#90-0075L) as per kit instructions.

human GIPR = biological target: T2, human GIPR (Homo sapiens, UniProt P48546); experiment: cAMP production in CHO-K1 cells stably expressing human GIPR, DiscoveRx Hithunter cAMP XS+ (Example 4); format: cell-based; settings: procedure of Example 4, read-out: EC50 (nM) at GIP receptor
T2 construct: expressed in transfected cells; host or cells: CHO-K1
T2 sequence (P48546 22-466): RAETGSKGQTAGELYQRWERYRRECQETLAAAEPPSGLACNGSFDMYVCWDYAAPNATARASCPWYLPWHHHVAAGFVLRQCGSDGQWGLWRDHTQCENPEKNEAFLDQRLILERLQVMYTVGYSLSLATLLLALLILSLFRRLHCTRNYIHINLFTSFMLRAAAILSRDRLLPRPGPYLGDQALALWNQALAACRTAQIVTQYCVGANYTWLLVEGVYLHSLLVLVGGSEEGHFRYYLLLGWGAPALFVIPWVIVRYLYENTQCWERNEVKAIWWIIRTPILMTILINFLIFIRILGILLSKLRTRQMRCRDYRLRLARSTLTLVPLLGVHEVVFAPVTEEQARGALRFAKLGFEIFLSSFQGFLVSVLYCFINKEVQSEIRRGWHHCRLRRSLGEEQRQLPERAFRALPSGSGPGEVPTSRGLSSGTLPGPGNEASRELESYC
Protocol: as §1

[1] = body weight of diet-induced obese (DIO) mice dosed daily for nine days (Example 7); format: in vivo; settings: Day 9
Protocol: (§2) Mice were administered a vehicle control or a dose of a peptide daily for nine days. The peptides tested in this study included a peptide of SEQ ID NO: 12, a peptide of SEQ ID NO: 17, a peptide of SEQ ID NO: 18, and a peptide of SEQ ID NO: 19. Doses of each peptide were varied—each of the peptides of SEQ ID NO: 12, 17, and 19 was administered at a dose of either 3 nmol/kg or 9 nmol/kg, while the peptide of SEQ ID NO: 18 was administered at a dose of 1 nmol/kg, 3 nmol/kg, or 9 nmol/kg. Data are expressed as mean±SEM.

[2] = ambient glucose levels of DIO mice dosed daily for nine days (Example 7); format: in vivo
Protocol: as §2
In addition to cumulative body weight change, ambient glucose levels of the DIO mice were measured.

[3] = body weight of obese rhesus monkeys dosed daily for 21 days (Example 8); format: in vivo
Protocol: (§3) The in vivo effects of a peptide of the invention were confirmed in obese rhesus monkeys by administering daily for 21 days a vehicle control, a commercially available product (Liraglutide), a peptide of SEQ ID NO: 20, or a peptide of SEQ ID NO: 17. […] Body weight and food intake were measured.

[4] = food intake of obese rhesus monkeys dosed daily for 21 days (Example 8); format: in vivo; settings: 3 μg/kg s.c. daily for 21 days
Protocol: as §3

[5] = fasting blood glucose (FBG) of diabetic rhesus monkeys treated for 10 days (Example 9); format: in vivo; settings: 1 μg/kg s.c. for 10 days
Protocol: (§4) The in vivo effects of a peptide of the invention were tested in diabetic rhesus monkeys (n=7) that were aged 16-26 years and having an average body weight of […]. Diabetic rhesus monkeys (n=7) that were aged 16-26 years with an average body weight of […] were administered a vehicle control, Liraglutide at a dose of 10 μg/kg s.c. or a peptide of SEQ ID NO: 17 at a dose of 1 μg/kg s.c. for 10 days. At the end of each treatment, fasting blood glucose (FBG) was measured first followed by a Meal Tolerance Test (MTT) to assess glucose tolerance. […] Data are expressed in FIG. 4 as mean±SEM. *P<0.05 versus vehicle.

[6] = Meal Tolerance Test (MTT) in diabetic rhesus monkeys treated for 10 days (Example 9); format: in vivo; settings: 1 μg/kg s.c. for 10 days
Protocol: as §4

human GLP-1R = human GLP-1R (Homo sapiens, UniProt P43220); experiment: cAMP production in CHO-K1 cells stably expressing human GLP-1R, DiscoveRx Hithunter cAMP XS+ (Example 4); format: cell-based; set-up: host or cells: CHO-K1; settings: CHO-K1 stably expressing human GLP-1R, procedure of Example 4
Protocol: as §1

Chain of human GLP-1R (P43220 24-463): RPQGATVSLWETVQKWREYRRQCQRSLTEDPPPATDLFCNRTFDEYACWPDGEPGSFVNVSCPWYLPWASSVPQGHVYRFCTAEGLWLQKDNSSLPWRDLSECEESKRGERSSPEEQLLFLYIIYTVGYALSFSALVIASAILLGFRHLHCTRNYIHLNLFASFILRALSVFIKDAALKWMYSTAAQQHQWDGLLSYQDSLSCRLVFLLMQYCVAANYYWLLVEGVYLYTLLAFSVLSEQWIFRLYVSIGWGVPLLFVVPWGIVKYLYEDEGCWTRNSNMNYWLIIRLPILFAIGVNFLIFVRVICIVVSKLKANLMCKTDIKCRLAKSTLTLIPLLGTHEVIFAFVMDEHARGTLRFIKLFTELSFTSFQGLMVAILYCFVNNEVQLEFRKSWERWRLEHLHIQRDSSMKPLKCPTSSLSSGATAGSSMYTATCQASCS
T1 sequence (P47871 26-477): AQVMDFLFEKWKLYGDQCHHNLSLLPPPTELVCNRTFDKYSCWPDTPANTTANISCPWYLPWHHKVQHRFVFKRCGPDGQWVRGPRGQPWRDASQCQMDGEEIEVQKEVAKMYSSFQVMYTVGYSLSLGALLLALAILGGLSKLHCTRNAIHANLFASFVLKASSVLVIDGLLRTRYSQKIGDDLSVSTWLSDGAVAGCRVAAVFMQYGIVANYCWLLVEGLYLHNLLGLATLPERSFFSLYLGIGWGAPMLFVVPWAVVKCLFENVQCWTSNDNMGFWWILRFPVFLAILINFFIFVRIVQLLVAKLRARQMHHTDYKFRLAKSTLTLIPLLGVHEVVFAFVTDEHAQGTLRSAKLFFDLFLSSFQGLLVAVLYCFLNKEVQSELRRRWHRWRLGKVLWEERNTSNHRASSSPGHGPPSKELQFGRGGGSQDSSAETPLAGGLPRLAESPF

For CCCCCCCCCCCCCCCC(=O)N[C@@H](CCC(=O)N[C@@H](CCC(=O)NCCCC[C@H](NC(=O)[C@H](CC(=O)O)NC(=O)[C@H](CO)NC(=O)[C@@H](NC(=O)[C@H](Cc1ccccc1)NC(=O)[C@@H](NC(=O)CNC(=O)[C@H](CCC(N)=O)NC(=O)C(C)(C)NC(=O)[C@@H](N)Cc1c[nH]cn1)[C@@H](C)O)[C@@H](C)O)C(=O)N[C@@H](CO)C(=O)N[C@@H](CCCCN)C(=O)N[C@@H](Cc1ccc(O)cc1)C(=O)N[C@@H](CC(C)C)C(=O)N[C@@H](CC(=O)O)C(=O)NC(C)(C)C(=O)N[C@@H](CCCNC(=N)N)C(=O)N[C@@H](C)C(=O)N[C@@H](C)C(=O)N[C@@H](CCC(N)=O)C(=O)N[C@@H](CC(=O)O)C(=O)N[C@@H](Cc1ccccc1)C(=O)N[C@H](C(=O)N[C@@H](CCC(N)=O)C(=O)N[C@@H](Cc1c[nH]c2ccccc12)C(=O)N[C@@H](CC(C)C)C(=O)N[C@@H](CCSC)C(=O)N[C@@H](CC(N)=O)C(=O)N[C@H](C(=O)N[C@@H](CCCCN)C(=O)N[C@@H](CCC(N)=O)C(=O)O)[C@@H](C)O)C(C)C)C(=O)O)C(=O)O [SEQ ID NO: 17] (H-H[Aib]QGTFTSDK([γGlu-γGlu-Palmitoyl])SKYLD[Aib]RAAQDFVQWLMNTKQ-OH; N-terminus assumed), the EC50 (human GCGR) was 0.11 nM, the EC50 (human GIPR) was > 2000 nM and the body weight reduction ([1]; 3 nmol/kg daily) was ~9.6%. For the same compound, the body weight loss ([1]; 9 nmol/kg daily) was ~35.5%, the “reduction in glucose levels compared to vehicle control mice” value ([2]; 3 nmol/kg daily, Day 7) was ~28% and the “decrease in glucose levels compared to vehicle control mice” value (“decrease in glucose levels” for short) ([2]; 3 nmol/kg daily, Day 9) was ~19%. For the same compound, the “decrease in glucose levels” value ([2]; 9 nmol/kg daily, Day 4) was ~48%, the “decrease in glucose levels” value ([2]; 9 nmol/kg daily, Day 7) was ~48% and the “decrease in glucose levels” value ([2]; 9 nmol/kg daily, Day 9) was ~45%. The “weight loss vs. baseline and vehicle” value ([3]; 3 μg/kg s.c. daily for 21 days) was -1.2 kg, the “body weight following a one week wash-out” value ([3]; Day 28, after 21 days at 3 μg/kg s.c.) was “regained much of the weight that was lost” and the “food intake, % change vs. baseline” value [4] was −25.7%. The “FBG change vs. vehicle” value [5] was −25%, the fasting blood glucose (FBG) ([5]; mean±SEM) was 120 ± 20 mg/dL and the “glucose tolerance during MTT as compared to vehicle” value [6] was “improved glucose tolerance”. It also gave an EC50 (human GLP-1R) of 0.075 nM.
